According to patent US9284330B2 (priority 2011, dated 2016):
Like-named read-outs stand apart in the source and are kept apart here.

Experiments:
[1] = tested on: L-type Ca2+ channel; assay: Blocking of L-type Ca2+ channel by high content screening analyzer, KCl-induced calcium ion influx in SH-SY5Y cells (Fluo-4-AM)
[2] = molecular target: acetylcholinesterase (Electrophorus electricus (Electric eel) (Gymnotus electricus), UniProt O42275); assay: biochemical
[3] = tested on: L-type Ca2+ channel; assay: Blocking of L-type Ca2+ channel by patch clamp, calcium current in rat dorsal root ganglion cells; format: cell-based; settings: whole cell patch clamp
[4] = tested on: primary cortical neuron cells; settings: 24 h incubation

acetylcholinesterase, sequence (O42275 whole entry, looked up): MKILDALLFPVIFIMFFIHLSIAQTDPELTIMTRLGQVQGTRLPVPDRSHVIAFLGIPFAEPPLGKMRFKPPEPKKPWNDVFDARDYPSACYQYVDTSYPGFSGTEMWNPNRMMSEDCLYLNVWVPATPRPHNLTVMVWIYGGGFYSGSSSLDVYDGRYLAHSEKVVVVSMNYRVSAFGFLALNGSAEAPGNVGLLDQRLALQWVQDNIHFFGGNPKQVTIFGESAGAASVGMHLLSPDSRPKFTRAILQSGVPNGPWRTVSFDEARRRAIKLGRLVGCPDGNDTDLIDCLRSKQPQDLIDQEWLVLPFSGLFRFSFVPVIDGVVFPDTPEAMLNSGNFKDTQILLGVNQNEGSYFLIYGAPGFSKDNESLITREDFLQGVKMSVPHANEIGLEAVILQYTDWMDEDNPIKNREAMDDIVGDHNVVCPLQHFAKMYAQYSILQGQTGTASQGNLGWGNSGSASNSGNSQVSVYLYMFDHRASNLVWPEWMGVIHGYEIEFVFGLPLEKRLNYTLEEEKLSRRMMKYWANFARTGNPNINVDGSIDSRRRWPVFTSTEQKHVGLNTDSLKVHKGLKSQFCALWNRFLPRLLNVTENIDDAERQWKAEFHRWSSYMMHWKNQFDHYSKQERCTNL

SMILES | Inhibition rate of KCl-induced calcium ion influx ([1]; 10 μM compound) [%] | Inhibition rate of KCl-induced calcium ion influx ([1]; 50 μM compound) [%] | IC50 [2] [nM] | further results
COC(=O)C1=C(C)Nc2nc3c(c(N)c2C1c1ccccc1)CN(C)CC3 (centres unmarked) [Compound S12, 5-amino-2,7-dimethyl-4-phenyl-1,4,6,7,8,9-hexahydropyrido[2,3-b][1,6]naphthyridine-3-carboxylic acid methyl ester] | 34.59 | 52.61 | – | –
COC(=O)C1=C(C)Nc2nc3c(c(N)c2C1c1cccc([N+](=O)[O-])c1)CCC(C)=C3 (centres unmarked) [Compound S18, 5-amino-2,8-dimethyl-4-(3-nitrophenyl)-1,4,6,7-tetrahydrobenzo[b][1,8]naphthyridine-3-carboxylic acid methyl ester] | – | – | 504 | –
CCOC(=O)C1=C(C)Nc2nc3c(c(N)c2C1c1cccc([N+](=O)[O-])c1)CC(C)(C)CC3 (centres unmarked) [Compound S31, 5-amino-2,7,7-trimethyl-4-(3-nitrophenyl)-1,4,6,7,8,9-hexahydrobenzo[b][1,8]naphth yridine-3-carboxylic acid ethyl ester] | 19.10 | 93.34 | 3030 | –
CC1=C(C(=O)OC(C)C)C(c2cncnc2)c2c(nc3c(c2N)CC(C)(C)CC3)N1 (centres unmarked) [Compound S26, 5-amino-2,7,7-trimethyl-4-(pyrimidin-5-yl)-1,4,6,7,8,9-hexahydrobenzo[b][1,8]napht hyridine-3-carboxylic acid isopropyl ester] | 30.18 | 41.41 | – | –
C=CCOC(=O)C1=C(C)Nc2nc3c(c(N)c2C1c1cccc(F)c1)CC(C)(C)CC3 (centres unmarked) [Compound S35, 5-amino-4-(3-fluorophenyl)-2,7,7-trimethyl-1,4,6,7,8,9-hexahydrobenzo[b][1,8]napht hyridine-3-carboxylic acid allyl ester] | – | – | 1790 | –
COC(=O)C1=C(C)Nc2nc3c(c(N)c2C1c1cccc([N+](=O)[O-])c1)CC(C)(C)CC3 (centres unmarked) [Compound S30, 5-amino-2,7,7-trimethyl-4-(3-nitrophenyl)-1,4,6,7,8,9-hexahydrobenzo[b][1,8]naphth yridine-3-carboxylic acid methyl ester] | 29.44 | 80.73 | 5960 | –
C=CCOC(=O)C1=C(C)Nc2nc3c(c(N)c2C1c1cccc([N+](=O)[O-])c1)CC(C)(C)CC3 (centres unmarked) [Compound S5, 5-amino-4-(3-nitrophenyl)-2,7,7-trimallyl1,4,6,7,8,9-hexahydrobenzo[b][1,8]naphthyr idine-3-carboxylic acid allyl ester] | 14.40 | 62.43 | 770 | –
C#CCOC(=O)C1=C(C)Nc2nc3c(c(N)c2C1c1cccc([N+](=O)[O-])c1)CC(C)(C)CC3 (centres unmarked) [Compound S37, 5-amino-4-(3-nitrophenyl)-2,7,7-trimethyl-1,4,6,7,8,9-hexahydrobenzo[b][1,8]naphth yridine-3-carboxylic acid propargyl ester] | – | – | 1860 | –
CCC1=C(C(=O)OC)C(c2cccc([N+](=O)[O-])c2)c2c(nc3c(c2N)CC(C)(C)CC3)N1 (centres unmarked) [Compound S25, 5-amino-7,7-dimethyl-4-(3-nitrophenyl)-2-ethyl-1,4,6,7,8,9-hexahydrobenzo[b][1,8]n aphthyridine-3-carboxylic acid methyl ester] | 1.02 | 63.52 | 842 | –
CC1=C(C(=O)OC2CCC2)C(c2ccccc2F)c2c(nc3c(c2N)CC(C)(C)CC3)N1 (centres unmarked) [Compound S9, 5-amino-4-(2-fluorophenyl)-2,7,7-trimethyl-1,4,6,7,8,9-hexahydrobenzo[b][1,8]napht hyridine-3-carboxylic acid cyclobutyl ester] | 5.22 | 85.01 | 919 | –
CCOC(=O)C1=C(C)N(C)c2nc3c(c(N)c2C1c1ccccc1Cl)CC(C)(C)CC3 (centres unmarked) [Compound S38, 5-amino-4-(2-chlorphenyl)-1,2,7,7-tetramethyl-1,4,6,7,8,9-hexahydrobenzo[b][1, 8]na phthyridine-3-carboxylic acid ethyl ester] | 17.97 | 51.19 | – | –
COC(=O)C1=C(C)NC(C)=C(C(=O)OC)C1c1ccccc1[N+](=O)[O-] [Nifedipine, reference compound] | – | – | – | Inhibition rate of L-type Ca2+ channel current ([3]; 100 nmol/L compound): 22.48%; Inhibition rate of L-type Ca2+ channel current ([3]; 1000 nmol/L compound): 36.15%
CCOC(=O)C1=C(C)Nc2nc3c(c(N)c2C1c1cccc(F)c1)CC(C)(C)CC3 (centres unmarked) [Compound S34, 5-amino-2,7,7-trimethyl-4-(3-fluorophenyl)-1,4,6,7,8,9-hexahydrobenzo[b][1,8]napht hyridine-3-carboxylic acid ethyl ester] | 39.53 | 88.96 | 1780 | –
CCOC(=O)C1=C(C)Nc2nc3c(c(N)c2C1c1cccc(C(F)(F)F)c1)CC(C)(C)CC3 (centres unmarked) [Compound S4, 5-amino-4-(3-trifluoromethylphenyl)-2,7,7-trimethyl-1,4,6,7,8,9-hexahydrobenzo[b][1,8]naphthyridine-3-carboxylic acid ethyl ester] | 64.82 | 85.17 | 1050 | –
CCOC(=O)C1=C(C)Nc2nc3c(c(N)c2C1c1cccc([N+](=O)[O-])c1)CC(Cl)(Cl)CC3 (centres unmarked) [Compound S20, 5-amino-7,7-dichloro-2-methyl-4-(3-nitrophenyl)-1,4,6,7,8,9-hexahydrobenzo[b][1,8]naphthyridine-3-carboxylic acid ethyl ester] | 46.88 | 99.27 | – | Relative neuron activity (average) ([4]; 0.01 μM): 103.9%; Relative neuron activity (average) ([4]; 0.1 μM): 98.5%; Relative neuron activity (average) ([4]; 1 μM): 47.5%
COC(=O)C1=C(C)Nc2nc3c(c(N)c2C1c1ccccc1)CC(C)(C)CC3 (centres unmarked) [Compound S7, 5-amino-4-phenyl-2,7,7-trimethyl-1,4,6,7,8,9-hexahydrobenzo[b][1,8]naphthyridine-3-carboxylic acid methyl ester] | 1.01 | 72.98 | 1380 | –
COCCOC(=O)C1=C(C)Nc2nc3c(c(N)c2C1c1ccccc1Cl)CC(C)(C)CC3 (centres unmarked) [Compound S10, 5-amino-4-(2-chlorphenyl)-2,7,7-trimethyl-1,4,6,7,8,9-hexahydrobenzo[b][1,8]naphth yridine-3-carboxylic acid methoxylethyl ester] | 49.97 | 83.29 | 971 | Relative neuron activity (average) ([4]; 0.01 μM): 120.7%; Relative neuron activity (average) ([4]; 0.1 μM): 96.3%; Relative neuron activity (average) ([4]; 1 μM): 70.3%
CCOC(=O)C1=C(C)Nc2nc3c(c(N)c2C1c1ccccc1OC)CC(C)CC3 (centres unmarked) [Compound S28, 5-amino-4-(2-methoxylphenyl)-2,7-dimethyl-1,4,6,7,8,9-hexahydrobenzo[b][1,8]naph thyridine-3-carboxylic acid ethyl ester] | – | – | 136 | –
CC1=C(C(=O)OC(C)C)C(c2cccc(Cl)c2)c2c(nc3c(c2N)CC(C)(C)CC3)N1 (centres unmarked) [Compound S33, 5-amino-2,7,7-trimethyl-4-(3-chlorphenyl)-1,4,6,7,8,9-hexahydrobenzo[b][1,8]naphth yridine-3-carboxylic acid isopropyl ester] | – | – | 1840 | –
C#CCOC(=O)C1=C(C)Nc2nc3c(c(N)c2C1c1cccc(F)c1)CC(C)(C)CC3 (centres unmarked) [Compound S36, 5-amino-2,7,7-trimethyl-4-(3-fluorophenyl)-1,4,6,7,8,9-hexahydrobenzo[b][1,8]napht hyridine-3-carboxylic acid propargyl ester] | – | – | 1930 | –
CCOC(=O)C1=C(C)Nc2nc3c(c(N)c2C1c1ccc(C(F)(F)F)cc1)CC(C)CC3 (centres unmarked) [Compound S2, 5-amino-2,7-dimethyl-4-(4-trifluoromethylphenyl)-1,4,6,7,8,9-hexahydrobenzo[b][1,8]naphthyridine-3-carboxylic acid ethyl ester] | 38.79 | 94.01 | 558 | –
CC1=C(C(=O)OCCN(C)C)C(c2ccccc2)c2c(nc3c(c2N)CC(F)(F)CC3)N1 (centres unmarked) [Compound S29, 5-amino-7,7-difluoro-2-methyl-4-phenyl-1,4,6,7,8,9-hexahydrobenzo[b][1,8]naphthyr idine-3-carboxylic acid-2-(dimethylamino) ethyl ester] | 17.93 | 57.19 | 45 | Inhibition rate of L-type Ca2+ channel current ([3]; 100 nmol/L compound): 11.64%; Inhibition rate of L-type Ca2+ channel current ([3]; 1000 nmol/L compound): 23.76%
CCOC(=O)C1=C(C)Nc2nc3c(c(N)c2C1c1cccc([N+](=O)[O-])c1)CC(F)(F)CC3 (centres unmarked) [Compound S19, 5-amino-7,7-difluoro-2-methyl-4-(3-nitrophenyl)-1,4,6,7,8,9-hexahydrobenzo[b][1,8]naphthyridine-3-carboxylic acid ethyl ester] | – | – | 333 | Inhibition rate of L-type Ca2+ channel current ([3]; 100 nmol/L compound): 4.12%; Inhibition rate of L-type Ca2+ channel current ([3]; 1000 nmol/L compound): 26.29%
CC1=C(C(=O)OCC2CC2)C(c2ccccc2Cl)c2c(nc3c(c2N)CC(C)(C)CC3)N1 (centres unmarked) [Compound S11, 5-amino-4-(2-chlorphenyl)-2,7,7-trimethyl-1,4,6,7,8,9-hexahydrobenzo[b][1,8]naphth yridine-3-carboxylic acid cyclopropylmethyl ester] | 54.69 | 75.06 | – | –
